This note sets out measurements from patent publication US9663525B2, “Pyrazolopyrimidinyl inhibitors of ubiquitin-activating enzyme” (Millennium Pharmaceuticals, Inc., priority 2012, dated 2017).

In the experiment the target is recombinant human UAE (Homo sapiens (Human), UniProt P22314). Put plainly: Ubiquitin Activating Enzyme (UAE) HTRF assay, human UAE.
Sequence of recombinant human UAE (P22314 whole entry): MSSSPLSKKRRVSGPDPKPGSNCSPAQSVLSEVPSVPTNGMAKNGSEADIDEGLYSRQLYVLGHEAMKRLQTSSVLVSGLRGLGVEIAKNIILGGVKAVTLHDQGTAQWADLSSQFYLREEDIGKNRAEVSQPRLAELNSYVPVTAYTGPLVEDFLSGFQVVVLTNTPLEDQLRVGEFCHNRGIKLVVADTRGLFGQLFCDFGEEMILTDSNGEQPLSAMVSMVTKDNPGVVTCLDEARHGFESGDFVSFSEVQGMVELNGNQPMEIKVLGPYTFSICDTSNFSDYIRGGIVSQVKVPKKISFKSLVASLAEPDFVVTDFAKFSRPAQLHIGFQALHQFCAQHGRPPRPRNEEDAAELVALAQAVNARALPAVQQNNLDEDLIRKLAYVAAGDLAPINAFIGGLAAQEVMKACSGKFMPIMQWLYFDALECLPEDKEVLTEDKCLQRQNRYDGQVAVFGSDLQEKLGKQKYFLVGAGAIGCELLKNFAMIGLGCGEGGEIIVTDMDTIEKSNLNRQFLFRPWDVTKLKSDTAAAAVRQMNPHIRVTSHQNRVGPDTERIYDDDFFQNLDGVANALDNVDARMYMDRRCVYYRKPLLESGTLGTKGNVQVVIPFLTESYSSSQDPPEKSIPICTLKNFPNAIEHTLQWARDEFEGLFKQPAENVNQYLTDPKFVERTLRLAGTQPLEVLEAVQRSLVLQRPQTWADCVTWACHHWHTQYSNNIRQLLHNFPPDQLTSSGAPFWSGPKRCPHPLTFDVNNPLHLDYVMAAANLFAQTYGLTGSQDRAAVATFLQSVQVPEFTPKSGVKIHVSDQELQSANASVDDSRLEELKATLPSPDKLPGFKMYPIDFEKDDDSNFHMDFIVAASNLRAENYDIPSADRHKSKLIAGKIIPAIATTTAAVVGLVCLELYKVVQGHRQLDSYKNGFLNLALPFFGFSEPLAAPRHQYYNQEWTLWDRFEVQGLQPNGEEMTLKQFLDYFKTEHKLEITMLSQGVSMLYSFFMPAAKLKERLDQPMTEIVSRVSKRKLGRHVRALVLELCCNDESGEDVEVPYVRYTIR

Experimental: After incubation for 120 minutes, quantification of the FRET is performed on the Pherostar (BMG).
For compounds whose values are marked with an asterisk (*), mouse UAE was used. For all other compounds, human UAE was used.

As to `COc1ccccc1-c1cc2nccc(N[C@@H]3C[C@H](COS(N)(=O)=O)[C@@H](O)[C@H]3O)n2n1` (racemic) [Compound I-072, (rac)-((1R,2R,3S,4R)-2,3-dihydroxy-4-(2-(2-methoyphenyl)pyrazolo[1,5-a]pyrimidin-7-ylamino)cyclopentyl)methyl rel-sulfamate], the IC50 (as a rule, the concentration that inhibits the measured activity by half) is less than 10 nM.
The value for `NS(=O)(=O)OC[C@H]1C[C@@H](Nc2ccnc3cc(-c4cccc(C(=O)c5ccccc5)c4)nn23)[C@H](O)[C@@H]1O` (racemic) [Compound I-073, (rac)-((1R,2R,3S,4R)-4-(2-(3-benzoylphenyl)pyrazolo[1,5-a]pyrimidin-7-ylamino)-2,3-dihydroxycyclopentyl)methyl rel-sulfamate] was 10 to 100 nM; that for `NS(=O)(=O)OC[C@H]1C[C@@H](Nc2ccnc3cc(-c4ccc5[nH]ccc5c4)nn23)[C@H](O)[C@@H]1O` (racemic) [Compound I-074, (rac)-[(1R,2R,3S,4R)-2,3-dihydroxy-4-{[2-(1H-indol-5-yl)pyrazolo[1,5-a]pyrimidin-7-yl]amino}cyclopentyl]methyl rel-sulfamate] was 10 to 100 nM; that for `NS(=O)(=O)OC[C@H]1C[C@@H](Nc2ccnc3cc(-c4cccc5[nH]ccc45)nn23)[C@H](O)[C@@H]1O` (racemic) [Compound I-075, (rac)-((1R,2R,3S,4R)-4-(2-(1H-indol-4-yl)pyrazolo[1,5-a]pyrimidin-7-ylamino)-2,3-dihydroxycyclopentyl)methyl rel-sulfamate] was less than 10 nM.
For `NS(=O)(=O)OC[C@H]1C[C@@H](Nc2ccnc3cc(-c4cccc(N5CCCCC5)c4)nn23)[C@H](O)[C@@H]1O` (racemic) [Compound I-077, (rac)-((1R,2R,3S,4R)-2,3-dihydroxy-4-(2-(3-(piperidin-1-yl)phenyl)pyrazolo[1,5-a]pyrimidin-7-ylamino)cyclopentyl)methyl rel-sulfamate], the IC50 is less than 10 nM.
The value for `NS(=O)(=O)OC[C@H]1C[C@@H](Nc2ccnc3cc(-c4cccc(N5CCOCC5)c4)nn23)[C@H](O)[C@@H]1O` (racemic) [Compound I-078, (rac)-((1R,2R,3S,4R)-2,3-dihydroxy-4-(2-(3-morpholinophenyl)pyrazolo-[1,5-a]pyrimidin-7-ylamino)cyclopentyl)methyl rel-sulfamate] was less than 10 nM.
The value for `NS(=O)(=O)OC[C@H]1C[C@@H](Nc2ccnc3cc(-c4ccccc4SC(F)(F)F)nn23)[C@H](O)[C@@H]1O` (racemic) [Compound I-079, (rac)-((1R,2R,3S,4R)-2,3-dihydroxy-4-(2-(2-(trifluoromethylthio)phenyl)pyrazolo[1,5-a]pyrimidin-7-ylamino)cyclopentyl)methyl rel-sulfamate] was 10 to 100 nM; that for `NS(=O)(=O)OC[C@H]1C[C@@H](Nc2ccnc3cc(-c4ccc(SC(F)(F)F)cc4)nn23)[C@H](O)[C@@H]1O` (racemic) [Compound I-080, (rac)-((1R,2R,3S,4R)-2,3-dihydroxy-4-(2-(4-(trifluoromethylthio)phenyl)pyrazolo[1,5-a]pyrimidin-7-ylamino)cyclopentyl)methyl rel-sulfamate] was 10 to 100 nM.
As for `NS(=O)(=O)OC[C@H]1C[C@@H](Nc2ccnc3cc(-c4csc5ccc(F)cc45)nn23)[C@H](O)[C@@H]1O` (racemic) [Compound I-081, (rac)-((1R,2R,3S,4R)-4-(2-(5-fluorobenzo[b]thiophen-3-yl)pyrazolo[1,5-a]pyrimidin-7-ylamino)-2,3-dihydroxycyclopentyl)methyl rel-sulfamate], the figure is less than 10 nM; as for `C#Cc1cccc(-c2cc3nccc(N[C@@H]4C[C@H](COS(N)(=O)=O)[C@@H](O)[C@H]4O)n3n2)c1` (racemic) [Compound I-083, (rac)-[(1R,2R,3S,4R)-4-{[2-(3-ethynylphenyl)pyrazolo[1,5-a]pyrimidin-7-yl]amino}-2,3-dihydroxycyclopentyl]methyl rel-sulfamate], less than 10 nM.
For the compound `CCOC(C)(C)c1cccc(-c2cc3nccc(N[C@@H]4C[C@H](COS(N)(=O)=O)[C@@H](O)[C@H]4O)n3n2)c1` (racemic) [Compound I-084, (rac)-((1R,2R,3S,4R)-4-(2-(3-(2-ethoxypropan-2-yl)phenyl)pyrazolo[1,5-a]pyrimidin-7-ylamino)-2,3-dihydroxycyclopentyl)methyl rel-sulfamate], the IC50 was less than 10 nM.
Consider `NS(=O)(=O)OC[C@H]1C[C@@H](Nc2ccnc3cc(-c4ccc5c(c4)C(=O)c4ccccc4-5)nn23)[C@H](O)[C@@H]1O` (racemic) [Compound I-085, (rac)-((1R,2R,3S,4R)-2,3-dihydroxy-4-(2-(9-oxo-9H-fluoren-2-yl)pyrazolo[1,5-a]pyrimidin-7-ylamino)cyclopentyl)methyl rel-sulfamate], for which the IC50 was less than 10 nM.
As to `NS(=O)(=O)OC[C@H]1C[C@@H](Nc2ccnc3cc(-c4cc5ccccc5o4)nn23)[C@H](O)[C@@H]1O` (racemic) [Compound I-086, (rac)-((1R,2R,3S,4R)-4-(2-(benzofuran-2-yl)pyrazolo[1,5-a]pyrimidin-7-ylamino)-2,3-dihydroxycyclopentyl)methyl rel-sulfamate], the IC50 is less than 10 nM.
The value for `NS(=O)(=O)OC[C@H]1C[C@@H](Nc2ccnc3cc(-c4cccc(N5CCCC5=O)c4)nn23)[C@H](O)[C@@H]1O` (racemic) [Compound I-087, (rac)-((1R,2R,3S,4R)-2,3-dihydroxy-4-(2-(3-(2-oxopyrrolidin-1-yl)phenyl)pyrazolo[1,5-a]pyrimidin-7-ylamino)cyclopentyl)methyl rel-sulfamate] was less than 10 nM; that for `NS(=O)(=O)OC[C@H]1C[C@@H](Nc2ccnc3cc(-c4cc5ccc(Cl)cc5s4)nn23)[C@H](O)[C@@H]1O` (racemic) [Compound I-088, (rac)-((1R,2R,3S,4R)-4-(2-(6-chlorobenzo[b]thiophen-2-yl)pyrazolo[1,5-a]pyrimidin-7-ylamino)-2,3-dihydroxycyclopentyl)methyl rel-sulfamate] was 10 to 100 nM; that for `CCCOC(C)(C)c1cccc(-c2cc3nccc(N[C@@H]4C[C@H](COS(N)(=O)=O)[C@@H](O)[C@H]4O)n3n2)c1` (racemic) [Compound I-090, (rac)-((1R,2R,3S,4R)-2,3-dihydroxy-4-(2-(3-(2-propoxypropan-2-yl)phenyl)pyrazolo[1,5-a]pyrimidin-7-ylamino)cyclopentyl)methyl rel-sulfamate] was less than 10 nM.
The value for `NS(=O)(=O)OC[C@H]1C[C@@H](Nc2ccnc3cc(-c4coc5ccc(Cl)cc45)nn23)[C@H](O)[C@@H]1O` (racemic) [Compound I-092, (rac)-((1R,2R,3S,4R)-4-(2-(5-chlorobenzofuran-3-yl)pyrazolo[1,5-a]pyrimidin-7-ylamino)-2,3-dihydroxycyclopentyl)methyl rel-sulfamate] was less than 10 nM; that for `NS(=O)(=O)OC[C@H]1C[C@@H](Nc2ccnc3cc(-c4ccc5c(c4)oc4ccccc45)nn23)[C@H](O)[C@@H]1O` (racemic) [Compound I-093, (rac)-((1R,2R,3S,4R)-4-(2-(dibenzo[b,d]furan-3-yl)pyrazolo[1,5-a]pyrimidin-7-ylamino)-2,3-dihydroxycyclopentyl)methyl rel-sulfamate] was less than 10 nM.
